These results are taken from patent US9273057B2 (Bristol-Myers Squibb Company, priority 2012, dated 2016).

In the assay the target is CK2A1 (CK2α/β) (Homo sapiens, UniProt P68400). In words: CK2 kinase assay, CK2A1 (CK2α/β). Type of assay: biochemical. As to conditions: Table A; read-out: CK2A1 (CK2α/β) (IC50).
Chain of CK2A1 (CK2α/β) (P68400 whole entry, species assumed): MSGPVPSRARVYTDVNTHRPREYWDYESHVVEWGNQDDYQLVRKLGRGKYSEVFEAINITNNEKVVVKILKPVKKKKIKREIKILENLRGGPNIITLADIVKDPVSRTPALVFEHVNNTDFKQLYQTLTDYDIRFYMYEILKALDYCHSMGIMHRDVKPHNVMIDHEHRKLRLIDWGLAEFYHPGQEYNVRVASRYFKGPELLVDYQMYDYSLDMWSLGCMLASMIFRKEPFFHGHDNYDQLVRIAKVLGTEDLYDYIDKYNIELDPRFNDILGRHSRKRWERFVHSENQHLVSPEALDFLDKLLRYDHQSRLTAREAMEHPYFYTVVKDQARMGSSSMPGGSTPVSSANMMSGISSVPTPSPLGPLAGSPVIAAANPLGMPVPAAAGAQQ
Chain of CK2A1 (CK2α/β) (P67870 whole entry partner, species assumed): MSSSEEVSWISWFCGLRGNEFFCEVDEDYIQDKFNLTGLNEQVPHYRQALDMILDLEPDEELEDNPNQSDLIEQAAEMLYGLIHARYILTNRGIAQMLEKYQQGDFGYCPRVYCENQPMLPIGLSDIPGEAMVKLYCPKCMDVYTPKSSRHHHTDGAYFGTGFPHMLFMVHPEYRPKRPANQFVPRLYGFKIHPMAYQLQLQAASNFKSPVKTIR
On to `CN1CC2CN(c3cc(C#N)cc(Nc4nc(NC5CC5)c5ncc(C#N)n5n4)c3Cl)CC2C1` (stereo not drawn) [Example 461, 2-((2-chloro-5-cyano-3-(5-methylhexahydropyrrolo[3,4-c]pyrrol-2(1H)-yl)phenyl)amino)-4-(cyclopropylamino)imidazo[2,1-f][1,2,4]triazine-7-carbonitrile], for which the IC50 was determined as 2.46 nM.

Take `COC(=O)N1CC2CN(c3cc(C#N)cc(Nc4nc(NC5CC5)c5ncc(C#N)n5n4)c3Cl)CC2C1` (stereo not drawn) [Example 462, methyl 5-(2-chloro-5-cyano-3-((7-cyano-4-(cyclopropylamino)imidazo[2,1-f][1,2,4]triazin-2-yl)amino)phenyl)hexahydro-pyrrolo[3,4-c]pyrrole-2(1H)-carboxylate]: the IC50 stood at 3 nM. Then `N#Cc1cc(CN2CCCC3(COC3)C2)c(Cl)c(Nc2nc(NC3CC3)c3ncc(C#N)n3n2)c1` [Example 463, 2-((3-(2-oxa-6-azaspiro[3.5]nonan-6-ylmethyl)-2-chloro-5-cyanophenyl)amino)-4-(cyclopropylamino)imidazo[2,1-f][1,2,4]triazine-7-carbonitrile], with 1 nM; and `CN(CCC#N)Cc1cc(C#N)cc(Nc2nc(NC3CC3)c3ncc(C#N)n3n2)c1Cl` [Example 464, 2-[(2-chloro-5-cyano-3-{[(2-cyanoethyl)(methyl)amino]methyl}phenyl)amino]-4-(cyclopropylamino)imidazo[2,1-f][1,2,4]triazine-7-carbonitrile], with 0.57 nM; and `N#Cc1cc(CN2CCN(CCO)CC2)c(Cl)c(Nc2nc(NC3CC3)c3ncc(C#N)n3n2)c1` [Example 465, 2-[(2-chloro-5-cyano-3-{[4-(2-hydroxyethyl)piperazin-1-yl]methyl}phenyl)amino]-4-(cyclopropylamino)imidazo[2,1-f][1,2,4]triazine-7-carbonitrile], with 1.66 nM. For the compound `N#Cc1cc(CNCCN2CCOCC2)c(Cl)c(Nc2nc(NC3CC3)c3ncc(C#N)n3n2)c1` [Example 466, 2-{[2-chloro-5-cyano-3-({[2-(morpholin-4-yl)ethyl]amino}methyl)phenyl]amino}-4-(cyclopropylamino)imidazo[2,1-f][1,2,4]triazine-7-carbonitrile], the IC50 was 1.31 nM.

In the case of `N#Cc1cc(CNCc2ccccn2)c(Cl)c(Nc2nc(NC3CC3)c3ncc(C#N)n3n2)c1` [Example 467, 2-[(2-chloro-5-cyano-3-{[(pyridin-2-ylmethyl)amino]methyl}phenyl)amino]-4-(cyclopropylamino)imidazo[2,1-f][1,2,4]triazine-7-carbonitrile], the IC50 amounted to 0.45 nM.

Take `CC(C)(C)NCc1cc(C#N)cc(Nc2nc(NC3CC3)c3ncc(C#N)n3n2)c1Cl` [Example 468, 2-({3-[(tert-butylamino)methyl]-2-chloro-5-cyanophenyl}amino)-4-(cyclopropylamino)imidazo[2,1-f][1,2,4]triazine-7-carbonitrile]: the IC50 amounted to 0.3 nM. For `CC(C)(C)CNCc1cc(C#N)cc(Nc2nc(NC3CC3)c3ncc(C#N)n3n2)c1Cl` [Example 469, 2-[(2-chloro-5-cyano-3-{[(2,2-dimethylpropyl)amino]methyl}phenyl)amino]-4-(cyclopropylamino)imidazo[2,1-f][1,2,4]triazine-7-carbonitrile] the value was 1.48 nM. For `N#Cc1cc(CNCC2CC2)c(Cl)c(Nc2nc(NC3CC3)c3ncc(C#N)n3n2)c1` [Example 470] the value was 1.5 nM; for `N#Cc1cc(CN2CCC(C(N)=O)CC2)c(Cl)c(Nc2nc(NC3CC3)c3ncc(C#N)n3n2)c1` [Example 471, 1-[(2-chloro-5-cyano-3-{[7-cyano-4-(cyclopropylamino)imidazo[2,1-f][1,2,4]triazin-2-yl]amino}phenyl)methyl]piperidine-4-carboxamide], 0.87 nM. For `CC(C)(C)N1CCN(Cc2cc(C#N)cc(Nc3nc(NC4CC4)c4ncc(C#N)n4n3)c2Cl)CC1` [Example 472, 2-((3-[(4-tert-butylpiperazin-1-yl)methyl]-2-chloro-5-cyanophenyl}amino)-4-(cyclopropylamino)imidazo[2,1-f][1,2,4]triazine-7-carbonitrile] the value was 1.7 nM.
